US12274687B2, “Methods for treating ascites” (Martin Pharmaceuticals, Inc., priority 2021, dated 2025)
Entries after “also recorded” stand apart in the source; their conditions may differ.

Tests used:
RA patients = settings: small cohort of RA patients; cited from earlier work
[1] = test system: cirrhotic subjects with RA; assay: Open-label, single-arm clinical study of docarpamine on ascites formation (frequency of LVP, volume of ascitic fluid drained); format: in vivo, human
Description: An open-label, single-arm study in which each subject serves as his/her own control is conducted. The study assesses the effect of DCP treatment on ascites formation in cirrhotic subjects with RA, by examining the frequency of LVP and the volume of ascitic fluid drained. All subjects participate in a 90-day open-label treatment period. […] Ascites history (relevant medications, LVP dates, and volume of drained fluid) for the 90 days prior to treatment and the 90 days after treatment are collected and used for comparison with on-treatment frequency and volume. The study population consists of cirrhotic patients between 18 and 70 years of age, inclusive, with refractory ascites, subject to the following inclusion and exclusion criteria. • Patients 18 years to 70 years of age. • Documented cirrhosis of the liver. • Refractory ascites, defined as ascites not manageable with diuretics and diet restriction, managed with periodic large volume therapeutic paracentesis. • Patients must have therapeutic […] 3 days prior to enrollment and a documented minimum of 3 additional therapeutic […] 90 days prior to enrollment, with at least 1 every 30 days. • Outpatient, with expected survival of at least 6 months. • Willing and able to complete an informed consent form.

patients with RA = settings: cited from earlier work
[2] = administered orally; high rates of metabolism in gut / small intestine and liver; cited from earlier work
[3] = high dose 4500 mg per day (1500 mg 3 times per day), 90 days treatment, on average, vs 90 days prior to treatment

| SMILES | efficacy in refractory ascites (RA patients) | effects on LVP, ascites volume and renal markers at low dose ([1]; 750 mg 3 times per day (2250 mg per day), 90 days: effects not observed) | time during which patients do not require LVP ([1]; 4500 mg per day group, some patients / others) | other markers of improved renal function ([1]; 4500 mg per day, 90 days) | sodium excretion ([1]; 4500 mg per day, 90 days) | Renin and/or aldosterone levels ([1]; 4500 mg per day, many patients, in some cases to normal) | urinary output on treatment ([1]; 4500 mg per day, most patients, from 500-1000 ml before, printed '1500-2000 ml or more') | frequency of LVP over 90 days [1, 3] | volume of ascites removed over 90 days [1, 3] | frequency and volume of LVP once a patient stops treatment ([1]; off-treatment follow-up after 90 days at 4500 mg per day) | persistence of the decrease in LVP after stopping treatment ([1]; off-treatment follow-up, before beginning to increase again) | changes of blood urea nitrogen, creatinine, creatinine clearance, blood pressure, pulse rate, serum sodium, serum aldosterone and GFR (patients with RA) | effective renal plasma flow (patients with RA) | oral bioavailability [2] |
| --- | --- | --- | --- | --- | --- | --- | --- | --- | --- | --- | --- | --- | --- | --- |
| CCOC(=O)Oc1ccc(CCNC(=O)[C@H](CCSC)NC(C)=O)cc1OC(=O)OCC [docarpamine] | effective | only in the high dose | more than one month; also recorded: more than two months | respond positively | Increased | reduced | 1500 to 2000 mL | reduced by more than half | reduced by more than half | greater decreases | one or more months | – | – | – |
| NCCc1ccc(O)c(O)c1 [dopamine] | – | – | – | – | – | – | – | – | – | – | – | no difference | Positive effects | not orally bioavailable |
